Results published in PMC4685510, “A Cell Biologist’s Field Guide to Aurora Kinase Inhibitors” (Frontiers in Oncology, 2015).
“And” between values parts separate entries of the source, which are not always exact repeats. Equal entries are not always repeated. Where two headings read alike, the source gives them in different places.

Tests used:
Assay in all cases: biochemical
Type in all cases: biochemical
[1] = molecular target: 363 human kinases (including Aurora A/B/C) (Homo sapiens, UniProt P22607); settings: FGFR3, [ATP] 30 µM; for remaining activity at 0.1 µM: 100 nM; for remaining activity at 0.1 µM / remaining activity at 0.5 µM: read-out: % Enzyme Activity (relative to DMSO controls)
Text: (§1) However, the Aurora A/B selectivity ratios derived from our in vitro and in vivo data can be compared to prioritize inhibitors.

[2] = molecular target: 363 human kinases (including Aurora A/B/C) (Homo sapiens, UniProt Q13557); settings: CAMK2d, [ATP] 30 µM; for remaining activity at 0.1 µM: 100 nM; for remaining activity at 0.1 µM / remaining activity at 0.5 µM: read-out: % Enzyme Activity (relative to DMSO controls)
Text: as §1

[3] = test system: 363 human kinases (including Aurora A/B/C)
Text: as §1

[4] = molecular target: 363 human kinases (including Aurora A/B/C) (Homo sapiens, UniProt O43293); settings: ZIPK/DAPK3; for remaining activity at 0.1 µM: 100 nM; for remaining activity at 0.1 µM / remaining activity at 0.5 µM: read-out: % Enzyme Activity (relative to DMSO controls)
Text: as §1

[5] = molecular target: T1, 363 human kinases (including Aurora A/B/C) (Homo sapiens, UniProt Q8IYT8); settings: ULK2; for remaining activity at 0.1 µM: 100 nM; for remaining activity at 0.1 µM / remaining activity at 0.5 µM: read-out: % Enzyme Activity (relative to DMSO controls)
T1 sequence (Q8IYT8 1-1036): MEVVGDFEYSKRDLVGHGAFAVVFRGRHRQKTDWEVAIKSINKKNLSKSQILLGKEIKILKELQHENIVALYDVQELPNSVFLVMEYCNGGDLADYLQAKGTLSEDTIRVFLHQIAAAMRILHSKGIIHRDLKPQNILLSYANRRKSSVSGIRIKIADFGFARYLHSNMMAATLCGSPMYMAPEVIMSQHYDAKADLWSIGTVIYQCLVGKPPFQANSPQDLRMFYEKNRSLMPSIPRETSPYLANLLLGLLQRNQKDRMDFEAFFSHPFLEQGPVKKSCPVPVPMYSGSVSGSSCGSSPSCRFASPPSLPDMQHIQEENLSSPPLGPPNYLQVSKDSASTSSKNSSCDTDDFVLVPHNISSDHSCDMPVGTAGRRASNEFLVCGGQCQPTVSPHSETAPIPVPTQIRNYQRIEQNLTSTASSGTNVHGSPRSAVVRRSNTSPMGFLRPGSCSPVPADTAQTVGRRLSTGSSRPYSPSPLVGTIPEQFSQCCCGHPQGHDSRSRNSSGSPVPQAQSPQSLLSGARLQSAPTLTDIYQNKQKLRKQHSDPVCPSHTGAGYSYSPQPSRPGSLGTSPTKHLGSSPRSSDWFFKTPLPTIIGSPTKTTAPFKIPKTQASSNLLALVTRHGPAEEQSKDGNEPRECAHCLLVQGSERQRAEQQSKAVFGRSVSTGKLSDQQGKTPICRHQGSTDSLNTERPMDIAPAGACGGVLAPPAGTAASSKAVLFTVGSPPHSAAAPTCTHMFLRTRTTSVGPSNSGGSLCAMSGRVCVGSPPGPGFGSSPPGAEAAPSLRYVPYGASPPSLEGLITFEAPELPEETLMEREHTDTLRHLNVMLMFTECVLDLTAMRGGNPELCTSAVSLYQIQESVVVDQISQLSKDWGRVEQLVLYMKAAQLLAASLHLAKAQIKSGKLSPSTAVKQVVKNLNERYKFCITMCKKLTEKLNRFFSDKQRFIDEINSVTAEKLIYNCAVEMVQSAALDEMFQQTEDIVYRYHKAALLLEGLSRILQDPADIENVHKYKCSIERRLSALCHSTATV
Text: as §1

[6] = molecular target: T2, 363 human kinases (including Aurora A/B/C) (Homo sapiens, UniProt Q6XUX3); settings: RIPK5; for remaining activity at 0.1 µM: 100 nM; for remaining activity at 0.1 µM / remaining activity at 0.5 µM: read-out: % Enzyme Activity (relative to DMSO controls)
T2 sequence (Q6XUX3 1-929): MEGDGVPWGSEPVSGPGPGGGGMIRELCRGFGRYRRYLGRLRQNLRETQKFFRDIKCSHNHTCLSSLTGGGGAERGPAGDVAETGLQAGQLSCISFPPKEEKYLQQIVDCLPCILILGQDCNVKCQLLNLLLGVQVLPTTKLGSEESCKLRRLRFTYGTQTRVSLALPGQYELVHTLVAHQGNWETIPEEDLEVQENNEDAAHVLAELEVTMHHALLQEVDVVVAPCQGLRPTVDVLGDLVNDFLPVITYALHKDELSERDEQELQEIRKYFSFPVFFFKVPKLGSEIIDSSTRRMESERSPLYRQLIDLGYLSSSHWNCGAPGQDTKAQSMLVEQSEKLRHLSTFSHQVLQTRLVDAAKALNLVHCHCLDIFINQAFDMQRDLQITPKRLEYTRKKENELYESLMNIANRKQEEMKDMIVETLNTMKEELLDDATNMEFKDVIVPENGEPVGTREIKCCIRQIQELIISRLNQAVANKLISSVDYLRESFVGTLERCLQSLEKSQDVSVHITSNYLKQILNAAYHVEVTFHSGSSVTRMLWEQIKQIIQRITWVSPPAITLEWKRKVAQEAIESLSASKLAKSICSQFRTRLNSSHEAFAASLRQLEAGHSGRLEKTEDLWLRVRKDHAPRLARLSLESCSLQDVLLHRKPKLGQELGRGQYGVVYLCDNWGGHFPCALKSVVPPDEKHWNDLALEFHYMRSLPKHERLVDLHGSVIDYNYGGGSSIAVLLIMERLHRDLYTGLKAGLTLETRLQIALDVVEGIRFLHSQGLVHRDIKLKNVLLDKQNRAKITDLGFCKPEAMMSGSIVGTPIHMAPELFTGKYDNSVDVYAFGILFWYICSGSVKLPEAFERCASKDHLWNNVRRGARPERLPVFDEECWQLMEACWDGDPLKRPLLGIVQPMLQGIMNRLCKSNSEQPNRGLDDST
Text: as §1

[7] = molecular target: 363 human kinases (including Aurora A/B/C) (Homo sapiens, UniProt Q00535); settings: for remaining activity at 0.1 µM: 100 nM; for remaining activity at 0.1 µM / remaining activity at 0.5 µM: read-out: % Enzyme Activity (relative to DMSO controls); for remaining activity at 0.5 µM / % Enzyme Activity (relative to DMSO controls): 500 nM
Text: as §1

[8] = molecular target: 363 human kinases (including Aurora A/B/C) (Homo sapiens, UniProt Q13464); settings: ROCK1; for remaining activity at 0.1 µM: 100 nM; for remaining activity at 0.1 µM / remaining activity at 0.5 µM: read-out: % Enzyme Activity (relative to DMSO controls)
Text: as §1

[9] = molecular target: 363 human kinases (including Aurora A/B/C) (Homo sapiens, UniProt O00238); settings: ALK6/BMPR1B, [ATP] 10 µM; for remaining activity at 0.1 µM: 100 nM; for remaining activity at 0.1 µM / remaining activity at 0.5 µM: read-out: % Enzyme Activity (relative to DMSO controls)
Sequence of 363 human kinases (including Aurora A/B/C) (Homo sapiens, UniProt O00238) (O00238 14-502): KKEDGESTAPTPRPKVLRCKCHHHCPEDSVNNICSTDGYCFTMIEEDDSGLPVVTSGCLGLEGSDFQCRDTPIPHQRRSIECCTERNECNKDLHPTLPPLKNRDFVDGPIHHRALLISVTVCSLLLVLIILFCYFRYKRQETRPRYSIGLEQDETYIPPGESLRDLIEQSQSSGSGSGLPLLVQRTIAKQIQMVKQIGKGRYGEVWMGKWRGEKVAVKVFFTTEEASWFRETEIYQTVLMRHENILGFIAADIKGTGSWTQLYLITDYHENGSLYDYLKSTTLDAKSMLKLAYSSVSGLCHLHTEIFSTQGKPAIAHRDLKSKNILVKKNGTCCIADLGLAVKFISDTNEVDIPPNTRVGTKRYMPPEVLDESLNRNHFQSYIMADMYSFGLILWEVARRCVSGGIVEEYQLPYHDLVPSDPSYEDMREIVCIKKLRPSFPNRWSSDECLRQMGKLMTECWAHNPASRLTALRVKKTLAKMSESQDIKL
Text: as §1

Sequence of 363 human kinases (including Aurora A/B/C) (Homo sapiens, UniProt O43293) (O43293 whole entry): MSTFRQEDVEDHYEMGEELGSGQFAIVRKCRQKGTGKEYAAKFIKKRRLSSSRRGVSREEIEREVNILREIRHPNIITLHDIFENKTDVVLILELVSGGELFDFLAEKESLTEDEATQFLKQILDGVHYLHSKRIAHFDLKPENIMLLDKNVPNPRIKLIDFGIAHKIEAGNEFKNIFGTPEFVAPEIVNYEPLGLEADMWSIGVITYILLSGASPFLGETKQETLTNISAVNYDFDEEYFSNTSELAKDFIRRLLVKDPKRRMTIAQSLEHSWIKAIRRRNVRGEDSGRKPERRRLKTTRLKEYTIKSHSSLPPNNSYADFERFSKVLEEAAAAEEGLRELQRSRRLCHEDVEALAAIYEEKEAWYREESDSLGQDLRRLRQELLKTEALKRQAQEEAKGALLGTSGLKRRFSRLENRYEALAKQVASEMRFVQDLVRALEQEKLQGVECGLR
Sequence of 363 human kinases (including Aurora A/B/C) (Homo sapiens, UniProt P22607) (P22607 23-806): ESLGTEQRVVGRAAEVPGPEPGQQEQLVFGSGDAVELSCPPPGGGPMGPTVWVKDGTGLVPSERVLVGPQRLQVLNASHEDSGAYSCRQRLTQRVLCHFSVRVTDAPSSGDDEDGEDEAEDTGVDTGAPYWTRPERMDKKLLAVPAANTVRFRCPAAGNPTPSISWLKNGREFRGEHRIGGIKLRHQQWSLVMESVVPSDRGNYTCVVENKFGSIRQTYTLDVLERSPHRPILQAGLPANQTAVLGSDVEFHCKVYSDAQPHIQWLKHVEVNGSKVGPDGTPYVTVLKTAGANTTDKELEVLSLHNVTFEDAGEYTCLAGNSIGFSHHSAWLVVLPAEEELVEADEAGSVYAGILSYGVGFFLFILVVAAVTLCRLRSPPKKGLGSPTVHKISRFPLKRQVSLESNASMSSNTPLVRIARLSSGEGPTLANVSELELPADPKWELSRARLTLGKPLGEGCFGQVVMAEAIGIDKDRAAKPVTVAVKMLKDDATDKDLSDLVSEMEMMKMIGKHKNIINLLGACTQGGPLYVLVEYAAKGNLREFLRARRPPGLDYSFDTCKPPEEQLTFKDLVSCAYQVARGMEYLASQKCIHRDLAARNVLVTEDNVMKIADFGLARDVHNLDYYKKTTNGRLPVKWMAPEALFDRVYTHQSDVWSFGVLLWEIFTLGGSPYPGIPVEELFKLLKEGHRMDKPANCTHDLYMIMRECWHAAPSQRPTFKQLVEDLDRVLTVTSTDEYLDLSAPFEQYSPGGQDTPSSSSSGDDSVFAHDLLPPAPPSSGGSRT
Sequence of 363 human kinases (including Aurora A/B/C) (Homo sapiens, UniProt Q13557) (Q13557 whole entry): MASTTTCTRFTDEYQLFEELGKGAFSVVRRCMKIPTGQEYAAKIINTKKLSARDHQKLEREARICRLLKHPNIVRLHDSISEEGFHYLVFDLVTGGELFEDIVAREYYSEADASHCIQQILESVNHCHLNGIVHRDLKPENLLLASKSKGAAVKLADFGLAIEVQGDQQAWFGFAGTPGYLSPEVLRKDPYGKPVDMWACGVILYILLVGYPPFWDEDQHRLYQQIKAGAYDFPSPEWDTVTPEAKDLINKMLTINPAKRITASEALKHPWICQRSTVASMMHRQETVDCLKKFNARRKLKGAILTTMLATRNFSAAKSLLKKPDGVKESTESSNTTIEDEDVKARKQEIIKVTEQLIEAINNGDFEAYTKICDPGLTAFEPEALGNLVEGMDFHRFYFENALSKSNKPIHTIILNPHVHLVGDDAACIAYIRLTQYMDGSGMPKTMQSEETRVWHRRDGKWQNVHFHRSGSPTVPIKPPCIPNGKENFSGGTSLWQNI
Sequence of 363 human kinases (including Aurora A/B/C) (Homo sapiens, UniProt Q13464) (Q13464 whole entry): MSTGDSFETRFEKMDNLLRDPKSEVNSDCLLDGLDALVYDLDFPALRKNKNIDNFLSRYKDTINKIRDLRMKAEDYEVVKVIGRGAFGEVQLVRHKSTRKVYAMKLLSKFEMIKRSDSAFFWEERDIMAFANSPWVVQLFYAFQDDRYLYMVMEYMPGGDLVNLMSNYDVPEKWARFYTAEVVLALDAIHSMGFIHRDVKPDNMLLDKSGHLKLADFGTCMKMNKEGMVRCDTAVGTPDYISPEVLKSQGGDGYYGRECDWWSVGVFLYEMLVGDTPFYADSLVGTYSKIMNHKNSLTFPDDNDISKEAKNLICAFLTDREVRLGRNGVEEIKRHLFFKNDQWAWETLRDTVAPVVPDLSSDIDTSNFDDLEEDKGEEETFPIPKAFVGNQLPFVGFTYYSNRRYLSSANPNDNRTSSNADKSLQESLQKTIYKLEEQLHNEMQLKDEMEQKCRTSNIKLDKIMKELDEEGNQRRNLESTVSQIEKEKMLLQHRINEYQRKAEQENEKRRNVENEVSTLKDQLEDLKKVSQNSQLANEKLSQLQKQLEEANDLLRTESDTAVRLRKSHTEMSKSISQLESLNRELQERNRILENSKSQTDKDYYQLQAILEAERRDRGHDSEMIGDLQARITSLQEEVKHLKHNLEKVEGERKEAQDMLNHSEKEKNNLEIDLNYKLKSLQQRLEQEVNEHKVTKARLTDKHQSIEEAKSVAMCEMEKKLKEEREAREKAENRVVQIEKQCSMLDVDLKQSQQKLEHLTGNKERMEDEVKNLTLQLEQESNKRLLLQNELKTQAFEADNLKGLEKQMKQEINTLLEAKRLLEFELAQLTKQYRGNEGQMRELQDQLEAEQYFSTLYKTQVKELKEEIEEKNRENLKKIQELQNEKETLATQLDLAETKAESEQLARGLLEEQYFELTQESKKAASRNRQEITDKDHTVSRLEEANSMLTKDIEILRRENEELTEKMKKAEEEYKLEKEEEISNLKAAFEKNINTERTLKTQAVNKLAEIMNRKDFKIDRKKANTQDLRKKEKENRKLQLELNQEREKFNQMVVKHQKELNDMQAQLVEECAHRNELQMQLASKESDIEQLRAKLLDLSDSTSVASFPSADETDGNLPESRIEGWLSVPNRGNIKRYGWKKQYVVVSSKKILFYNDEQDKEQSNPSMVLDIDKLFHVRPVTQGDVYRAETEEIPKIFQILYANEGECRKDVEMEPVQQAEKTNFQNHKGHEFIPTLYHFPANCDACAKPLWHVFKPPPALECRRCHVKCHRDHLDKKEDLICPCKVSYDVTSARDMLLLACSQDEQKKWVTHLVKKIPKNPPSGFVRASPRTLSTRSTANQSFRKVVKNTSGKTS
Sequence of 363 human kinases (including Aurora A/B/C) (Homo sapiens, UniProt Q00535) (Q00535 whole entry): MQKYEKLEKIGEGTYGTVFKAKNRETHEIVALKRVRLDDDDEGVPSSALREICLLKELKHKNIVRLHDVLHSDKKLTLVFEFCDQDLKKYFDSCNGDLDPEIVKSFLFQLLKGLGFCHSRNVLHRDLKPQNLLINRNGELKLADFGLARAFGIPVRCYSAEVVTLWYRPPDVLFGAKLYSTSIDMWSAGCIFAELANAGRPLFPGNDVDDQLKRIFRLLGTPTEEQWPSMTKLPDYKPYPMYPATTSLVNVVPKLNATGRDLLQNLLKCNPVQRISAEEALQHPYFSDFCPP

SMILES | remaining activity at 0.1 µM [1] [%] | remaining activity at 0.1 µM [2] [%] | remaining activity at 0.1 µM [4] [%] | remaining activity at 0.1 µM [5] [%] | remaining activity at 0.1 µM [6] [%] | remaining activity at 0.1 µM ([7]; CDK5/p25, [ATP] 50 µM) [%] | remaining activity at 0.1 µM ([7]; CDK5/p35, [ATP] 100 µM) [%] | remaining activity at 0.1 µM [8] [%] | remaining activity at 0.1 µM [9] [%] | remaining activity at 0.5 µM ([1]; 500 nM) [%] | remaining activity at 0.5 µM ([2]; 500 nM) [%] | remaining activity at 0.5 µM ([4]; 500 nM) [%] | remaining activity at 0.5 µM ([5]; 500 nM) [%] | remaining activity at 0.5 µM ([6]; 500 nM) [%] | remaining activity at 0.5 µM ([7]; CDK5/p25, [ATP] 50 µM) [%] | remaining activity at 0.5 µM ([7]; CDK5/p35, [ATP] 100 µM) [%] | remaining activity at 0.5 µM ([8]; 500 nM) [%] | remaining activity at 0.5 µM ([9]; 500 nM) [%] | further results
CCn1cc(-c2ccnc3[nH]c(-c4cccc(CN(C)C)c4)cc23)c(-c2ccc(NC(=O)N(C)C)cc2)n1 [GSK1070916] | 63.8 | 94.6 | 91.4 | 141 | 114 | 91.8 | 111 | 101 | 89.2 |  |  |  |  |  |  |  |  |  | Kinases inhibited ≥65% of control ([3]; 100 nM, 363 human kinases, [ATP] ~ Km(ATP)): Aurora A and B as well as DDR1
O=C(O)[C@]1(Cc2cccc(Nc3nccs3)n2)CC[C@@H](Oc2cccc(Cl)c2F)CC1 [MK-5108] | 64.9 | 101 | 97.8 | 113 | 96.6 | 95.8 | 95.7 | 99.8 | 101 | 31.5 | 98.6 | 92.6 | 134 | 123 | 75.3 | 90 | 102 | 46.2 | Number of kinases inhibited at >65% of control [3]: 75 kinases; Number of kinases inhibited at >65% of control (including the Aurora kinases) [3]: 32 kinases
O=C(c1cccc(Cl)c1F)N1CCN(Cc2cccc(Nc3nccs3)n2)CC1 [MK-8745] |  |  |  |  |  |  |  |  |  | 95.9 | 98.5 | 95.5 | 144 | 105 | 88.5 | 94.6 | 98.9 | 92 | % Enzyme Activity (relative to DMSO controls) ([1]; 500 nM): 95.75%; % Enzyme Activity (relative to DMSO controls) ([2]; 500 nM): 97.95%; Kinases inhibited at >65% of control ([3]; 500 nM): Aurora A, AXL, BRK, DDR1, EphA6, GSK3α/β, IRAK1, JNK1, LKB1, ROS1, Trk A/B/C, TYRO3, YES; Number of kinases inhibited at >65% of control ([3]; 500 nM): 16 kinases; % Enzyme Activity (relative to DMSO controls) ([3]; LYN B, 500 nM): 85.04% and 84.52%; % Enzyme Activity (relative to DMSO controls) ([3]; PKCb2, 500 nM): 98.11% and 97.15%; % Enzyme Activity (relative to DMSO controls) ([3]; PKG1b, 500 nM): 109.42% and 102.59%; % Enzyme Activity (relative to DMSO controls) ([4]; 500 nM): 93.58%; % Enzyme Activity (relative to DMSO controls) ([5]; 500 nM): 140.35%; % Enzyme Activity (relative to DMSO controls) ([6]; 500 nM): 103.95%; % Enzyme Activity (relative to DMSO controls) ([7]; CDK5/p25, [ATP] 50 µM): 87.84%; % Enzyme Activity (relative to DMSO controls) ([7]; CDK5/p35, [ATP] 100 µM): 93.11%; % Enzyme Activity (relative to DMSO controls) ([8]; 500 nM): 98.74%; % Enzyme Activity (relative to DMSO controls) ([9]; 500 nM): 91.78%
